Measurements: the supplement of paper PMC4862054

What was measured:
Conditions in all cases: incubation time: 72 h
MFM-223 [1] = assay: normalised viability (% of control), CellTiter-Blue; higher = more viable cells (about 100 = DMSO control)
Outline: (§1)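 The reported quantity is normalised viability at a single listed concentration of the series. Compound in 5 µl medium was pre-dispensed into 384-well plates and 20 µl of breast cancer cell suspension was added for 72 h. A 2 h, 37 °C CellTiter-Blue step (2.5 µl) preceded fluorescence reading at 560/590 nm, and plates were normalised to vehicle (100) and a positive kill control (0).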

HCC1599 [2] = assay: as above
Outline: as §1

MDA-MB-436 [3] = assay: as above
Outline: as §1

Hs578T [4] = assay: as above
Outline: as §1

MDA-MB-453 [5] = assay: as above
Outline: as §1

CAL-51 [6] = assay: as above
Outline: as §1

CAL-120 [7] = assay: as above
Outline: as §1

MFM-223 [8] = assay: drug sensitivity score (DSS), CellTiter-Blue viability (DSS (AUC-based score)); higher = stronger viability inhibition; extreme values may be limits of the assay
Method: (§2)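 DSRT with the CellTiter-Blue (resazurin reduction) viability readout, fluorescence 560/590 nm, 72 h incubation. Plates were normalised to DMSO and benzethonium chloride controls. DSS is computed from the area under the fitted dose-response curve (5 or 9 concentrations).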

HCC1599 [9] = assay: as above
Method: as §2

MDA-MB-436 [10] = assay: as above
Method: as §2

HCC1143 = assay: as above
Method: as §2

HCC1937 = assay: as above
Method: as §2

Hs578T [11] = assay: as above
Method: as §2

SK-BR-3 = assay: as above
Method: as §2

MDA-MB-453 [12] = assay: as above
Method: as §2

BT-474 = assay: as above
Method: as §2

CAL-148 = assay: as above
Method: as §2

MDA-MB-468 = assay: as above
Method: as §2

HDQ-P1 = assay: as above
Method: as §2

CAL-51 [13] = assay: as above
Method: as §2

MDA-MB-231 = assay: as above
Method: as §2

CAL-85-1 = assay: as above
Method: as §2

DU-4475 = assay: as above
Method: as §2

BT-549 = assay: as above
Method: as §2

CAL-120 [14] = assay: as above
Method: as §2

COc1c2occc2cc2ccc(=O)oc12 [Methoxsalen]
normalised viability [%]
Conditions	CAL-51 [6]	CAL-120 [7]	HCC1599 [2]	Hs578T [4]	MDA-MB-436 [3]	MDA-MB-453 [5]	MFM-223 [1]
3 nM	109	–	–	–	–	119	–
10 nM	–	99.1	106	55.3	90.6	–	100
30 nM	109	–	–	–	–	103	–
100 nM	104	–	–	–	–	112	–
1000 nM	–	101	85	138	87.1	–	101
10000 nM	–	104	93.5	110	93.8	–	50.5

Conditions	drug sensitivity score
BT-474	0
BT-549	0
CAL-51 [13]	0
CAL-85-1	0.682
CAL-120 [14]	0
CAL-148	1.28
DU-4475	0.558
HCC1143	0
HCC1599 [9]	0
HCC1937	0
HDQ-P1	0
Hs578T [11]	0
MDA-MB-231	0
MDA-MB-436 [10]	0
MDA-MB-453 [12]	1.68
MDA-MB-468	0
MFM-223 [8]	0
SK-BR-3	0

Cc1cc(Nc2nc(N[C@@H](C)c3ncc(F)cn3)ncc2Cl)[nH]n1 [AZD1480]
normalised viability [%]
Conditions	CAL-51 [6]	CAL-120 [7]	HCC1599 [2]	Hs578T [4]	MDA-MB-436 [3]	MDA-MB-453 [5]	MFM-223 [1]
0.3 nM	115	–	–	–	–	120	–
1 nM	–	87.9	96	145	109	–	92.1
3 nM	114	–	–	–	–	95.6	–
10 nM	110	–	–	–	–	110	–
100 nM	–	90.6	96.6	102	96.4	–	60.8
1000 nM	–	72.1	74.6	80.4	125	–	46.2

Conditions	drug sensitivity score
BT-474	0
BT-549	0
CAL-51 [13]	0
CAL-85-1	0
CAL-120 [14]	0
CAL-148	0
DU-4475	0.841
HCC1143	0
HCC1599 [9]	1.53
HCC1937	0
HDQ-P1	0
Hs578T [11]	0
MDA-MB-231	0
MDA-MB-436 [10]	0
MDA-MB-453 [12]	0.912
MDA-MB-468	0
MFM-223 [8]	7.5
SK-BR-3	0

CO[C@@]12[C@H](COC(N)=O)C3=C(C(=O)C(C)=C(N)C3=O)N1C[C@@H]1N[C@@H]12 [Mitomycin C]
normalised viability [%]
Conditions	CAL-51 [6]	CAL-120 [7]	HCC1599 [2]	Hs578T [4]	MDA-MB-436 [3]	MDA-MB-453 [5]	MFM-223 [1]
3 nM	119	–	–	–	–	124	–
10 nM	–	92.4	110	113	100	–	96.9
30 nM	118	–	–	–	–	94.5	–
100 nM	107	–	–	–	–	91.4	–
1000 nM	–	91.5	73.2	98.9	76.2	–	96.2
10000 nM	–	40.4	14.6	5.32	17.6	–	8.74

Conditions	drug sensitivity score
BT-474	3.1
BT-549	4.28
CAL-51 [13]	2.74
CAL-85-1	4.52
CAL-120 [14]	2.85
CAL-148	5.96
DU-4475	3.3
HCC1143	8.46
HCC1599 [9]	8.65
HCC1937	14.1
HDQ-P1	2.19
Hs578T [11]	4.97
MDA-MB-231	5.97
MDA-MB-436 [10]	6.47
MDA-MB-453 [12]	5.18
MDA-MB-468	7.16
MFM-223 [8]	4.69
SK-BR-3	9.21

CN(Cc1cnc2nc(N)nc(N)c2n1)c1ccc(C(=O)N[C@@H](CCC(=O)O)C(=O)O)cc1 [Methotrexate]
normalised viability [%]
Conditions	CAL-51 [6]	CAL-120 [7]	HCC1599 [2]	Hs578T [4]	MDA-MB-436 [3]	MDA-MB-453 [5]	MFM-223 [1]
3 nM	108	–	–	–	–	108	–
10 nM	–	85.2	102	106	111	–	108
30 nM	101	–	–	–	–	102	–
100 nM	62.6	–	–	–	–	90.7	–
1000 nM	–	46.9	75.6	86.5	64.4	–	107
10000 nM	–	55	103	79.4	93.6	–	100

Conditions	drug sensitivity score
BT-474	0
BT-549	0
CAL-51 [13]	15.1
CAL-85-1	9.69
CAL-120 [14]	17.3
CAL-148	9.98
DU-4475	0
HCC1143	10.5
HCC1599 [9]	0
HCC1937	0
HDQ-P1	0
Hs578T [11]	4.17
MDA-MB-231	0
MDA-MB-436 [10]	0
MDA-MB-453 [12]	0
MDA-MB-468	18.6
MFM-223 [8]	0
SK-BR-3	16.2
